Where two headings read alike, the source gives them in different places.
How the values were obtained:
[1] = target: T1, recombinant human (rh) PDE5A (Homo sapiens, UniProt O76074); assay: Phosphodiesterase-5 activity assay (radiometric SPA); format: biochemical; details: rhPDE5A1, 0.5 μM cGMP, 20 min at 37° C.
T1 construct: GST; purchased SIGMA E9034

[2] = Human plasma protein binding; format: in vitro ADME; details: for fraction unbound: human
Experimental: An aliquot of 200 μL of human plasma containing test compound was spiked into donor well (red chamber) of the insert. 350 μL of PBS was spiked into receiver well (white chamber) of the insert.
The samples were matrix equilibrated with opposite matrix (25 μL of plasma/buffer sample was matched with 25 μL of blank buffer/plasma). Matrix matched samples were precipitated with 200 μL of acetonitrile containing internal standard. Samples were vortexed at 1000 rpm for 5 min and centrifuged at 4000 rpm for 10 min. Supernatant was separated, diluted 2 fold with water and analysed in LC-MS/MS. (Table 2).

[3] = test system: Human Trabecular Meshwork Cells; assay: Cellular cGMP assay in human trabecular meshwork cells; format: cell-based; details: 10 μM Riociguat; for Concentration (nM) for 3-fold or 2-fold* cGMP increase vs Baseline: 3-fold increase (values without asterisk); for Ratio Maximum cGMP increase vs Baseline: 5 mM GSH, incubation 2 h
[4] = test system: Rat aortic smooth muscle cells; assay: Cellular cGMP assay in rat aortic smooth muscle cells; format: cell-based; details: 10 μM Riociguat; for Ratio Maximum cGMP increase vs Baseline: 5 mM GSH, incubation 2 h
Experimental: Examples (Test compounds) were characterized for their potency and efficacy to elevate cGMP in cellular systems such as human trabecular meshwork cells (Table 3), human platelets (Table 5) and rat aortic smooth muscle cells (Table 4).
Human trabecular meshwork cells (ABC Biopply AG, Solothurn, Switzerland) or rat aortic smooth muscle cells (Sigma Aldrich AG, Buchs, Switzerland) were plated in a 96 well plate precoated with collagen (Collagen Type I solution from rat tail, Sigma; diluted to 0.1 mg/ml) at 20.000 cells per well and grown in corresponding Trabecular Meshwork (ABC Supply AG) or Smooth Muscle (Sigma AG) Growth medium as provided by the manufacturers. After 18 h medium was exchanged and new medium added supplemented with 5 mM GSH. The next day culture medium was exchanged to DMEM with low glucose supplemented with 5 mM GSH. Cells were pre-incubated with 10 μM Riociguat (soluble guanylate cyclase stimulator; Lucerna-Chem AG, Luzern, Switzerland) for 15 min before test or reference compounds or vehicle was added to a final incubation volume of 100 μl per well. At the end of the incubation time (see below) the reaction was terminated by adding HCl (0.16M), IBMX (Isobutylmethylxanthin) (2 mM) in DMSO (2%) to the culture medium, final concentrations per well are given in brackets. Following a 20 sec on a plate shaker (200 rpm) the plate was immediately frozen at −80° C.
(§1) cGMP was determined by a commercially available ELISA kit (Direct cGMP ELISA kit, Enzo Life Sciences AG, Lauren, Switzerland) with a lower detection limit of 0.08 pmol/ml using the acetylation protocol following manufacturer's instructions. Results are given as the means from at least two independent experiments each in triplicate.
(§2) To study concentration-dependent effects on total cGMP test and reference compounds were investigated from 0.1 nM to 1 μM in half-logarithmic steps with an incubation time of 2 h. To examine the time course the incubation times were (min) 10, 30, 60, 90, 120 at 1 μM of test or reference compound.
(§3) Compounds were diluted from stock solutions in DMSO. The final concentration of DMSO in all wells including the vehicle controls was 0.2% for human trabecular meshwork and rat aortic smooth muscle cells and 0.3% for platelets.
(§4) From time course experiments, the time to half of the maximum cGMP increase with 1 μM of test compound has been extrapolated (t0.5max).

Human Platelets = assay: Total cGMP in human platelets; format: cell-based; details: for Ratio Maximum cGMP increase vs Baseline: 1 μM riociguat and 100 nM BAY 190954, incubation 2 h; for Concentration (nM) for 3-fold cGMP or 2-fold* increase vs Baseline: 3-fold increase (values without asterisk), 1 μM riociguat, 100 nM BAY 190954
Experimental: Effects of test and reference compounds on total cGMP in human platelets were investigated as described by Dunkern and Hatzelmann (Cell Signal. 17: 331-9, 2005) with modifications. Briefly, buffy coats (acquired form SRK Blutspende Zurich) were 4-fold diluted in 150 mM sodium chloride solution containing 0.9% sodium citrate and centrifuged at 200 g for 10 min. The resulting platelet-rich plasma was supplemented with a 1/10 volume of ACD solution (85 mM sodium citrate, 111 mM D-glucose, 71 mM citric acid, pH 4.4) and apyrase (Sigma AG) to a final concentration of 2 U/ml. After another centrifugation (1400 g, 10 min) the cellular pellet was resuspended in Ca2+/Mg2+-free Hepes-Tyrode buffer (134 mM NaCl, 12 mM NaHCO3, 2.9 mM KCl, 0.36 mM NaH2PO4, 5 mM HEPES, 5 mM glucose, 0.5% (w/v) bovine serum albumin, pH 7.4) and platelets were counted.
Platelets were used at 9×10^7 cells in 100 μl per well and after adding test and reference compounds the incubation volume was 200 μl per well in Hepes-Tyrode. Experiments in platelets were done in presence of 1 μM riociguat and 100 nM BAY 190954 (PDE2 inhibitor) (Lucerna Chem AG) and test/reference compounds were added after a preincubation time of 15 min. At the end of the incubation time (see below) the reaction was terminated by adding 20 μl of 2N HCl per well. Following a 20 sec on a plate shaker (300 rpm) the plate was left for 15 min and then centrifuged at 1000×g for 5 min. Supernatants were stored at −80° C.
as §1, §2, §3, §4

[5] = test system: Human Pulmonary Artery Smooth Muscle Cells (hPASMC); assay: cGMP in human pulmonary artery smooth muscle cells (hPASMC); format: cell-based; details: 30 min incubation, FIG. 4
Experimental: Human Pulmonary Artery Smooth Muscle Cells (hPASMC) were purchased from Clonetics™ Lonza (Lonza, reference number CC-2581) and cultured in Clonetics™ smooth muscle growth medium (Clonetics™ SmGM™-2 with BulletKit™ growth factor supplements (Lonza, reference number CC-3182) at 37° C. in 5% CO2. Culture medium was replaced each 48 hours. Cells were grown in 75 cm^2 culture plates.
48 h before the experiments, cells were trypsinized (Trypsin kit One ReagentPack™ (CC-5034), Lonza) and plated in 96 well plates precoated with collagen I at 10000 cells per well. 24 h before the experiments culture medium was replaced by serum-reduced (0.5% FBS) medium.
Measurements of intracellular cGMP were performed using the Amersham cGMP EIA System (GE Healthcare, RPN226) following the instructions of the manufacturer. The assay has a sensitivity of 2 fmol cGMP per well. Briefly, incubations were terminated by adding Amersham's lysis buffer 1 and cells left for 10 min under agitation to ensure complete lysis. cGMP in samples was then acetylated using triethylamine and acetic anhydride and determined by a competitive ELISA. The ELISA is based on the competition between acetylated cGMP in cell culture lysates and a peroxidase-labelled cGMP conjugate for limited binding sites on a cGMP specific antiserum immobilized on pre-coated 96 well MTP. cGMP was determined based on a standard curve. […]

[6] = read-out: % Unbound in human plasma

Row | IC50 [1] | fraction unbound ([2]; read-out: % Bound in human plasma (converted)) | SMILES | fraction unbound [2, 6] | Concentration (nM) for 3-fold or 2-fold* cGMP increase vs Baseline ([3]; HTMC) | Ratio Maximum cGMP increase vs Baseline ([3]; HTMC) | Concentration (nM) for 3-fold cGMP increase vs Baseline [4] | Ratio Maximum cGMP increase vs Baseline [4] | Ratio Maximum cGMP increase vs Baseline (Human Platelets) | Concentration (nM) for 3-fold cGMP or 2-fold* increase vs Baseline (Human Platelets) | efficacy in increasing cGMP level as compared to the reference inhibitor vardenafil [5] | % Bound in human plasma [2] | effect to elevate cGMP in HTMC compared with organic nitrate ester ITN and PDE5 inhibitors sildenafil or vardenafil ([3]; HTMC, FIG. 3A and FIG. 3B) | concentration equipotent to ITN & Vardenafil to elevate cGMP in HTMC ([3]; equipotent to 1 μM ITN & 1 μM Vardenafil) | concentration equipotent to ITN & Vardenafil to elevate cGMP in HTMC ([3]; equipotent to 10 μM ITN & 1 μM Vardenafil) | concentration equipotent to ITN & Sildenafil to elevate cGMP in HTMC ([3]; first value of pair 10.6 nM/50.8 nM, printed against 10 μM ITN & 1 μM Sildenafil) | concentration equipotent to ITN & Sildenafil to elevate cGMP in HTMC ([3]; second value of pair 10.6 nM/50.8 nM, equipotent to 10 μM ITN & 1 μM Sildenafil)
1 | 1 nM | 0.0118 | CCCc1nn(C)c2c(=O)[nH]c(-c3cc(S(=O)(=O)N4CCC([C@@H](O)CO[N+](=O)[O-])CC4)ccc3OCC)nc12 [Compound 1c, (R)-2-(1-((4-ethoxy-3-(1-methyl-7-oxo-3-propyl-6,7-dihydro-1H-pyrazolo[4,3-d]pyrimidin-5-yl)phenyl)sulfonyl)piperidin-4-yl)-2-hydroxyethyl nitrate] | 0.0118 | 25.1 nM | 61.9 | 1300 nM | 3.47 | 26.1 | 33.3 nM | significantly higher efficacy | – | – | – | – | – | –
2 | 0.14 nM | – | CCCc1nc(C)c2c(=O)[nH]c(-c3cc(S(=O)(=O)N4CCC([C@@H](O)CO[N+](=O)[O-])CC4)ccc3OCC)nn12 [Compound 2c, (R)-2-(1-((4-ethoxy-3-(5-methyl-4-oxo-7-propyl-3,4-dihydroimidazo[5,1-f][1,2,4]triazin-2-yl)phenyl)sulfonyl)piperidin-4-yl)-2-hydroxyethyl nitrate] | – | 10.1 nM | 52.1 | 729 nM | 5.93 | 105.4 | 4.3 nM | – | – | – | – | – | – | –
3 | 1.5 nM | – | CCCc1nn(C)c2c(=O)[nH]c(-c3cc(S(=O)(=O)N4CCC([C@@H](O)CO)CC4)ccc3OCC)nc12 [Compound 4, (R)-5-(5-((4-(1,2-dihydroxyethyl)piperidin-1-yl)sulfonyl)-2-ethoxyphenyl)-1-methyl-3-propyl-1,6-dihydro-7H-pyrazolo[4,3-d]pyrimidin-7-one] | – | 99.8 nM | 12.4 | >10000 nM | 1.04 | 6.4 | 92.6 nM | – | – | – | – | – | – | –
4 | 0.08 nM | – | CCCc1nc(C)c2c(=O)[nH]c(-c3cc(S(=O)(=O)N4CCC([C@@H](O)CO)CC4)ccc3OCC)nn12 [Compound 25, (R)-2-(5-((4-(1,2-dihydroxyethyl)piperidin-1-yl)sulfonyl)-2-ethoxyphenyl)-5-methyl-7-propyl imidazo[5,1-f][1,2,4]triazin-4(3H)-one] | – | 58.5 nM | 22.3 | >10000 nM | 0.89 | 23.3 | 5.9 nM | – | – | – | – | – | – | –

Row | SMILES | IC50 [1] | fraction unbound ([2]; read-out: % Bound in human plasma (converted)) | fraction unbound [2, 6] | Concentration (nM) for 3-fold or 2-fold* cGMP increase vs Baseline ([3]; HTMC) | Ratio Maximum cGMP increase vs Baseline ([3]; HTMC) | Concentration (nM) for 3-fold cGMP increase vs Baseline [4] | Ratio Maximum cGMP increase vs Baseline [4] | Ratio Maximum cGMP increase vs Baseline (Human Platelets) | Concentration (nM) for 3-fold cGMP or 2-fold* increase vs Baseline (Human Platelets) | efficacy in increasing cGMP level as compared to the reference inhibitor vardenafil [5] | % Bound in human plasma [2] | effect to elevate cGMP in HTMC compared with organic nitrate ester ITN and PDE5 inhibitors sildenafil or vardenafil ([3]; HTMC, FIG. 3A and FIG. 3B) | concentration equipotent to ITN & Vardenafil to elevate cGMP in HTMC ([3]; equipotent to 1 μM ITN & 1 μM Vardenafil) | concentration equipotent to ITN & Vardenafil to elevate cGMP in HTMC ([3]; equipotent to 10 μM ITN & 1 μM Vardenafil) | concentration equipotent to ITN & Sildenafil to elevate cGMP in HTMC ([3]; first value of pair 10.6 nM/50.8 nM, printed against 10 μM ITN & 1 μM Sildenafil) | concentration equipotent to ITN & Sildenafil to elevate cGMP in HTMC ([3]; second value of pair 10.6 nM/50.8 nM, equipotent to 10 μM ITN & 1 μM Sildenafil)
5 | CCCc1nc(C)c2c(=O)[nH]c(-c3cc(S(=O)(=O)N4CCC([C@H](CO[N+](=O)[O-])O[N+](=O)[O-])CC4)ccc3OCC)nn12 [Compound 2a, (R)-1-(1-((4-ethoxy-3-(5-methyl-4-oxo-7-propyl-3,4-dihydroimidazo[5,1-f][1,2,4]triazin-2-yl)phenyl)sulfonyl)piperidin-4-yl)ethane-1,2-diyl dinitrate] | 0.42 nM | – | 0.002 | 4.2 nM | 101.7 | 293 nM | 10.58 | 152.5 | 3.3 nM | significantly higher efficacy | 99.80% | over-additive effects | 2.6 nM | 12.4 nM | 10.6 nM | 50.8 nM

— US12502393B2, “Dual mode of action soluble guanylate cyclase activators and phosphodiesterase inhibitors and uses thereof” (TOPADUR PHARMA AG, priority 2018, dated 2025)
